Patent US20210403420A1, “BENZOATE COMPOUND” (SCOHIA PHARMA, INC., priority 2018, published 2021)
Where a name gives a salt, the structure may show the parent alone.

What was measured:
High fat diet-fed mice = assay: Fecal protein concentration-increasing test using high fat diet-fed mouse; format: in vivo; conditions: 30 mg/kg oral, feces of first day of administration; for response vs control in vivo at 30 mg/kg: Mus musculus, po, 24 h, vehicle group = 100, read-out: Fecal protein concentration-increasing rate
Description: Test Example 2: Fecal Protein Concentration-Increasing Test Using High Fat Diet-Fed Mouse
High fat diet-fed mice (D12451 diet, male, 10- to 50-week old) were orally administered with a 0.5% methyl cellulose suspension containing a test compound (compound administration group, five mice per group) or a 0.5% methyl cellulose suspension (compound non-administration group (vehicle group), five mice per group), and whole feces were collected on the first day of administration. Dried feces were dissolved in 0.5 N NaOH, followed by centrifugation at 12,000 rpm. The protein concentration in the supernatant was then quantitatively measured (Lowry method), and the amount of protein contained in 1 g of feces was calculated as the fecal protein concentration (mg/g feces). The fecal protein concentration-increasing rate was calculated by the following expression.
Fecal protein concentration-increasing rate (%)=Fecal protein concentration of compound administration group/Fecal protein concentration of vehicle group×100

[1] = molecular target: T1, Human recombinant enteropeptidase (Homo sapiens, UniProt P98073); assay: Human enteropeptidase inhibitory activity; format: biochemical; conditions: 1 μM test compound; fluorescence intensity at 2 hours after start of reaction; read-out: Inhibition rate at 1 μM
T1 construct: purchased ITSI-Biosciences LLC #REN-260
Description: Test Example 1: Human Enteropeptidase Inhibitory Activity
Human recombinant enteropeptidase (#REN-260, ITSI-Biosciences LLC) was diluted with an assay buffer (50 mM Tricine, pH 8.0, 0.01 (w/v) %, Tween 20, 10 mM CaCl2)) to prepare a 24 mU/mL enzyme solution. Subsequently, 5FAM-Abu-Gly-Asp-Asp-Asp-Lys-Ile-Val-Gly-Gly-Lys(CPQ2)-Lys-Lys-NH2 (CPC Scientific Inc.) was diluted with the assay buffer to prepare a 2.1 μM substrate solution. A test compound is dissolved in DMSO into a 10 mM solution, and the solution was diluted with the assay buffer to give a compound solution. To a 384-well black plate (#784076, Greiner Bio-One), 5 μL of the compound solution and 5 μL of the substrate solution were added and mixed, and 5 μL of the enzyme solution was then added to the mixture, followed by mixing to start the reaction. The fluorescence intensity was measured with a fluorescence plate reader EnVision (The Perkin-Elmer Corp.) at an excitation wavelength of 485 nm and a fluorescence wavelength of 535 nm. The same reaction as above was performed without the addition of the test compound (test compound non-addition group). Furthermore, the same reaction as above was performed without the addition of the test compound and the enzyme (control group). The inhibition rate was calculated using the fluorescence intensity at 2 hours after the start of the reaction by the following expression:
Inhibition rate (%)=(1−((fluorescence intensity of test compound addition group)−(fluorescence intensity of control group))/((fluorescence intensity of test compound non-addition group)−(fluorescence intensity of control group)))×100

[2] = test system: Diet-induced obesity (DIO) mice; assay: Anti-obesity effect test using DIO mouse; format: in vivo; conditions: for Body weight (g) At start of administration: average at start of administration; for Body weight (g) After 7-day administration: average; for Fecal protein concentration-increasing rate (%): feces of eighth day, vehicle = 100
Description: Test Example 3: Anti-Obesity Effect Test Using DIO Mouse
Diet-induced obesity (DIO) mice (D12451 diet, male, 26-week old) were orally administered with a 0.5% methyl cellulose suspension containing a test compound (30 mg/kg) (compound administration group, five mice per group) or a 0.5% methyl cellulose suspension (compound non-administration group (vehicle), five mice per group) once a day for seven days, and whole feces were collected on the eighth day of administration. Dried feces were dissolved in 0.5 N NaOH, followed by centrifugation at 12,000 rpm. The protein concentration in the supernatant was then quantitatively measured (Lowry method), and the amount of protein contained in 1 g of feces was calculated as the fecal protein concentration (mg/g feces). The fecal protein concentration-increasing rate was calculated by the following expression.
Fecal protein concentration-increasing rate (%)=Fecal protein concentration of compound administration group/Fecal protein concentration of vehicle group X 100
The fecal protein concentration-increasing rate and the averages of the body weights at the start of administration and after administration for seven days are shown in Table 6.
Also, DIO mice (D12451 diet, male, 59-week old) were orally administered with a 0.5% methyl cellulose suspension containing a test compound (20 mg/kg) (compound administration group, five mice per group) or a 0.5% methyl cellulose suspension (compound non-administration group (vehicle), five mice per group) once a day for seven days, and whole feces were collected on the eighth day of administration. The fecal protein concentration (mg/g feces) was calculated by the method described above. The fecal protein concentration-increasing rate and the averages of the body weights at the start of administration and after administration for seven days are shown in Table 7.

[3] = DIO mice 26-week old, 30 mg/kg oral once a day for seven days
[4] = DIO mice 59-week old, 20 mg/kg oral once a day for seven days

T1 sequence (P98073 whole entry): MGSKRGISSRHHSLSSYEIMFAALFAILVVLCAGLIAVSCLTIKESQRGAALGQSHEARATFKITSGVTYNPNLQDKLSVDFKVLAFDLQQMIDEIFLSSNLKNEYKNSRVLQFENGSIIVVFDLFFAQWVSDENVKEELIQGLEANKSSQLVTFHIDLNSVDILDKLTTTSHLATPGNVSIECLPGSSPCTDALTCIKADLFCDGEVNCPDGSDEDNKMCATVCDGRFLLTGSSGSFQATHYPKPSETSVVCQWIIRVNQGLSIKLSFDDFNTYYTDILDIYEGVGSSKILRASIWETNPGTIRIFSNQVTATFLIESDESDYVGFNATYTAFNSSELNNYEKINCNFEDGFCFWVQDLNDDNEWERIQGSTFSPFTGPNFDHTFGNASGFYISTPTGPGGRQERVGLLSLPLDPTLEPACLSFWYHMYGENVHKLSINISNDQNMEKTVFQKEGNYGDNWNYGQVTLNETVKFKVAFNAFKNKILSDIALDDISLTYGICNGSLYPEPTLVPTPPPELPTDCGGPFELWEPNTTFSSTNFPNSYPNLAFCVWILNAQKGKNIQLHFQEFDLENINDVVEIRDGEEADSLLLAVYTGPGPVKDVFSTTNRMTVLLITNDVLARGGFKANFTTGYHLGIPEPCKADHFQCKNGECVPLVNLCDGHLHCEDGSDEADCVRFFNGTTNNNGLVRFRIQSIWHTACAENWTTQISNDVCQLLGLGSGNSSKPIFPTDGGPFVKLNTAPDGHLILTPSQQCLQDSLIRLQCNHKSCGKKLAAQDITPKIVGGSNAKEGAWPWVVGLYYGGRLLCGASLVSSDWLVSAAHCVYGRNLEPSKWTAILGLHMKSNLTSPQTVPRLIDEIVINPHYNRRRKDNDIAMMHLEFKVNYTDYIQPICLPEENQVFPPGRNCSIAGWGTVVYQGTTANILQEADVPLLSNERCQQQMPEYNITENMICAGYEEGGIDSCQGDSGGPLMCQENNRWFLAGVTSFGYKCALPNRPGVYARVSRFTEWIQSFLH

SMILES | inhibition at 1 µM [1] [%] | response vs control in vivo at 30 mg/kg (High fat diet-fed mice) [%] | further results
N=C(N)Nc1ccc(C(=O)Oc2ccc(CCC(=O)N[C@H](CC(=O)O)C(=O)O)c(OCCOCCOCCOc3cc(OC(=O)c4ccc(NC(=N)N)cc4)ccc3CCC(=O)N[C@H](CC(=O)O)C(=O)O)c2)cc1 [Example 14, (2R)-2-[3-[2-[2-[2-[2-[2-[3-[[(1R)-1,2-Dicarboxyethyl]amino]-3-oxopropyl]-5-(4-guanidinobenzoyl)oxyphenoxy]ethoxy]ethoxy]ethoxy]-4-(4-guanidinobenzoyl)oxyphenyl]propanoylamino]butanedioic acid] | 100 | 171 | –
N=C(N)Nc1ccc(C(=O)Oc2ccc(CCC(=O)N[C@@H](CC(=O)O)C(=O)O)c(OCCOCCOCCOc3cc(OC(=O)c4ccc(NC(=N)N)cc4)ccc3CCC(=O)N[C@@H](CC(=O)O)C(=O)O)c2)cc1 [Example 4, (2S)-2-[3-[2-[2-[2-[2-[2-[3-[[(1S)-1,2-Dicarboxyethyl]amino]-3-oxopropyl]-5-(4-guanidinobenzoyl)oxyphenoxy]ethoxy]ethoxy]ethoxy]-4-(4-guanidinobenzoyl)oxyphenyl]propanoylamino]butanedioic acid ditrifluoroacetate] | – | – | Fecal protein concentration-increasing rate (High fat diet-fed mice; vehicle group = 100, ditrifluoroacetate): 181%
N=C(N)Nc1ccc(C(=O)Oc2cc(OCCOCCOc3cc(OC(=O)c4ccc(NC(=N)N)cc4)cc(C(=O)N[C@@H](CC(=O)O)C(=O)O)c3)cc(C(=O)N[C@@H](CC(=O)O)C(=O)O)c2)cc1 [Example 17, (2S)-2-[[3-[2-[2-[3-[[(1S)-1,2-Dicarboxyethyl]carbamoyl]-5-(4-guanidinobenzoyl)oxyphenoxy]ethoxy]ethoxy]-5-(4-guanidinobenzoyl)oxybenzoyl]amino]butanedioic acid dihydrochloride] | – | – | Body weight (g) At start of administration ([2]; DIO mice 26-week old, 30 mg/kg group): 45.6 g; Body weight (g) After 7-day administration [2, 3]: 44.3 g; Fecal protein concentration-increasing rate (%) [2, 3]: 252%
N=C(N)Nc1ccc(C(=O)Oc2cc(OCCOCCOCCOc3cc(OC(=O)c4ccc(NC(=N)N)cc4)cc(C(=O)N(CC(=O)O)CC(=O)O)c3)cc(C(=O)N(CC(=O)O)CC(=O)O)c2)cc1 [Example 5, 2-[[3-[2-[2-[2-[3-[Bis(carboxymethyl)carbamoyl]-5-(4-guanidinobenzoyl)oxyphenoxy]ethoxy]ethoxy]ethoxy]-5-(4-guanidinobenzoyl)oxybenzoyl]-(carboxymethyl)amino]acetic acid ditrifluoroacetate] | 99 | 158 | –
N=C(N)Nc1ccc(C(=O)Oc2ccc(OCCOCCOc3ccc(OC(=O)c4ccc(NC(=N)N)cc4)cc3C(=O)N[C@H](CC(=O)O)C(=O)O)c(C(=O)N[C@H](CC(=O)O)C(=O)O)c2)cc1 [Example 19, (2R)-2-[[2-[2-[2-[2-[[(1R)-1,2-Dicarboxyethyl]carbamoyl]-4-(4-guanidinobenzoyl)oxyphenoxy]ethoxy]ethoxy]-5-(4-guanidinobenzoyl)oxybenzoyl]amino]butanedioic acid] | 100 | 215 | –
N=C(N)Nc1ccc(C(=O)Oc2ccc(C(=O)N[C@H](CC(=O)O)C(=O)O)c(OCCOc3cc(OC(=O)c4ccc(NC(=N)N)cc4)ccc3C(=O)N[C@H](CC(=O)O)C(=O)O)c2)cc1 [Example 22, (2R)-2-[[2-[2-[2-[[(1R)-1,2-Dicarboxyethyl]carbamoyl]-5-(4-guanidinobenzoyl)oxyphenoxy]ethoxy]-4-(4-guanidinobenzoyl)oxybenzoyl]amino]butanedioic acid dihydrochloride] | – | – | Body weight (g) At start of administration ([2]; DIO mice 59-week old, 20 mg/kg group): 56.5 g; Body weight (g) After 7-day administration [2, 4]: 55.1 g; Fecal protein concentration-increasing rate (%) [2, 4]: 221%

Second part, led by results:

inhibition at 1 µM [1] [%] | SMILES | response vs control in vivo at 30 mg/kg (High fat diet-fed mice) [%] | further results
100 | N=C(N)Nc1ccc(C(=O)Oc2cc(OCCOCCOc3cc(OC(=O)c4ccc(NC(=N)N)cc4)cc(C(=O)N[C@@H](CC(=O)O)C(=O)O)c3)cc(C(=O)N[C@@H](CC(=O)O)C(=O)O)c2)cc1 [Example 8, (2S)-2-[[3-[2-[2-[3-[[(1S)-1,2-Dicarboxyethyl]carbamoyl]-5-(4-guanidinobenzoyl)oxyphenoxy]ethoxy]ethoxy]-5-(4-guanidinobenzoyl)oxybenzoyl]amino]butanedioic acid ditrifluoroacetate] | 210 | –
92 | N=C(N)Nc1ccc(C(=O)Oc2cc(OCCOCCOCCOc3cc(OC(=O)c4ccc(NC(=N)N)cc4)cc(C(=O)N[C@H](CO)C(=O)O)c3)cc(C(=O)N[C@H](CO)C(=O)O)c2)cc1 [Example 10, (2R)-2-[[3-[2-[2-[2-[3-[[(1R)-1-Carboxy-2-hydroxyethyl]carbamoyl]-5-(4-guanidinobenzoyl)oxyphenoxy]ethoxy]ethoxy]ethoxy]-5-(4-guanidinobenzoyl)oxybenzoyl]amino]-3-hydroxypropanoic acid] | 179 | –
100 | N=C(N)Nc1ccc(C(=O)Oc2cc(OCCOc3cc(OC(=O)c4ccc(NC(=N)N)cc4)cc(C(=O)N[C@@H](CC(=O)O)C(=O)O)c3)cc(C(=O)N[C@@H](CC(=O)O)C(=O)O)c2)cc1 [Example 9, (2S)-2-[[3-[2-[3-[[(1S)-1,2-Dicarboxyethyl]carbamoyl]-5-(4-guanidinobenzoyl)oxyphenoxy]ethoxy]-5-(4-guanidinobenzoyl)oxybenzoyl]amino]butanedioic acid] | 195 | –
98 | N=C(N)Nc1ccc(C(=O)Oc2cc(OCCOCCOCCOCCOCCOc3cc(OC(=O)c4ccc(NC(=N)N)cc4)cc(C(=O)N[C@@H](CC(=O)O)C(=O)O)c3)cc(C(=O)N[C@@H](CC(=O)O)C(=O)O)c2)cc1 [Example 2, (2S)-2-[[3-[2-[2-[2-[2-[2-[3-[[(1S)-1,2-Dicarboxyethyl]carbamoyl]-5-(4-guanidinobenzoyl)oxyphenoxy]ethoxy]ethoxy]ethoxy]ethoxy]ethoxy]-5-(4-guanidinobenzoyl)oxybenzoyl]amino]butanedioic acid] | 142 | –
98 | N=C(N)Nc1ccc(C(=O)Oc2cc(OCCOCCOCCOc3cc(OC(=O)c4ccc(NC(=N)N)cc4)cc(C(=O)N[C@@H](CC(=O)O)C(=O)O)c3)cc(C(=O)N[C@@H](CC(=O)O)C(=O)O)c2)cc1 [Example 1, (2S)-2-[[3-[2-[2-[2-[3-[[(1S)-1,2-Dicarboxyethyl]carbamoyl]-5-(4-guanidinobenzoyl)oxyphenoxy]ethoxy]ethoxy]ethoxy]-5-(4-guanidinobenzoyl)oxybenzoyl]amino]butanedioic acid ditrifluoroacetate] | 159 | –
